Legend:
[1] = Dynamic Light Scattering of peptide (hydrodynamic radius); type: physicochemical
Protocol: (§1) Fig. 4 Aggregation kinetics of TEM and SHV proteins and peptides. A Measurements of the hydrodynamic radius by Dynamic Light Scattering of 50 μM TEM3.2 in buffer alone, or in the presence of LPS or polyphosphate (PolyP). […] C Transmission Electron Micrograph of 50 μM TEM 3.2 incubated for 24 h in the same buffer as A with polyP, negatively stained with 2% (w/v) uranyl acetate. A single representative image is shown. […] Three replicates are shown for each condition. E Aggregation kinetics using pFTAA fluorescence emission of recombinantly purified TEM-1, in the presence of vehicle, or TEM 3.2 peptin, as well as peptin-only control. F Similar as in E, but using an off-target Pept-In, based on an APR sequence of beta-galactosidase. G Similar to E, but now using a previously published off-target Pept-In, based on an APR of HcaB. The plots are the results of a single experiment, all replicates are shown. Source data are provided as a Source Data file.
A DynaPro DLS plate reader instrument (Wyatt, Santa Barbara, CA, USA) equipped with an 830 nm laser source was used to determine the hydrodynamic radius (RH) of the peptide particles. […] The autocorrelation of scattered light intensity at a 32° angle was recorded for 5 s and averaged over 20 recordings to obtain a single data point. […]

[2] = system: SHV beta-lactamase in E. coli SHV-11; experiment: Western blot of inclusion body fraction; type: cell-based, Escherichia coli; settings: 12 μM peptide in PBS, 120 min
Source text: Fig. 5 Induction of aggregation in cells. […] A single representative image is shown. […] A single representative image is shown. C SIM and brightfield images as in A, but for E. coli ATCC strain. […] A single representative image is shown. […] A single representative blot is shown. […] The corrected P-values were 0.6091, 0.0029, 0.0027, <0.0001, and 0.9992, from left to right. […] Statistics exactly as in E, but from 3 independent experiments. The corrected P-values were 0.8753, 0.9796, 0.0001, 0.0003, and 0.0003, from left to right. Source data are provided as a Source Data file.
Overnight cultures of bacteria were centrifuged for 30 min at 4000 × g and cells were washed with physiological water (NaCl 0.9%). Bacterial cells were treated by peptide at the appropriate concentration for at least 2 h at 37 C. The bacterial pellets were washed with 10 mL buffer A (50 mM HEPES, pH 7.5, 300 mM NaCl, 5 mM β-mercaptoethanol, 1.0 mM EDTA) and centrifuged at 4 °C for 30 min at 4000 × g. […]

[3] = Hematologic analysis after repeated dosing; settings: daily IV injections, 5 mg/kg
[4] = system: E. coli TEM104; settings: checkerboard, strain containing TEM1 / TEM-1; FICI below 0.5 = synergy
Protocol: To quantify the synergy between these four peptides and penicillin G, we performed a so-called checkerboard assay, which allows us to compare the activity of two test compounds co-incubated (here peptide and a beta-lactam antibiotic), to their individual activities in isolation. […] We evaluated the synergy of the peptides with penicillin G in clinical E. coli isolates carrying the TEM (Fig. 3D) or SHV enzymes (Fig. 3E). […] The list of strains included some that harbored only TEM or SHV, but others contained additional Ambler Class A (CTX-M or OXA) or Class B (VIM and NDM) beta-lactamases.
For the analysis of synergy between the peptides and other antibiotics, a checkerboard assay was performed. Based on the MICs of the selected peptides, a checkerboard assay was designed to define their FICIs (Fractional Inhibitory Concentration Index) in combinations against different clinical isolates[53],[54]. Briefly, a total volume of 100 μL of Mueller–Hinton broth was distributed into each well of the 96-well plates. The first compound (peptide) of the combination was serially diluted vertically (128, 64, 32, 16, 8, 4, 2, 0 μg/mL) while the other drug (Beta-lactam or Kanamycin) was diluted horizontally in a 96-well plate (from 3200 to 3 μg/ mL). The total volume of each microtiter well was inoculated with 100 μL of MHB containing 1 × 10^6 CFU/mL bacteria. The plates were incubated at 37 °C for 24 h under aerobic conditions without shaking. Calculation of the FICI is used to analyze the results of the checkerboard assay by estimating the degree of synergistic effect. FICI is calculated as the sum of the individual fractional inhibitory concentrations (FICs) for each drug (where MIC A and MIC B denote the MIC of each drug alone, and MIC AA+B and MIC BA+B denote the concentrations of A and B in the drug combination). FICI = (MIC AA+B/MIC A) + (MIC BA+B/MIC B). With FICI ≤ 0.5, the combination of antibiotics is considered as a synergistic effect, 0.5 < FICI ≤ 1 indicates additivity, FICI > 1 indicates indifference.

[5] = molecular target: T1, recombinantly purified TEM-1 (Escherichia coli, UniProt P62593); type: biochemical, E. coli; settings: pFTAA fluorescence kinetics
T1 construct: His-tag (N); TEV cleavage site (N); made in house; host or cells: E. coli BL21 (DE3)
T1 sequence (P62593 24-286 limits assumed): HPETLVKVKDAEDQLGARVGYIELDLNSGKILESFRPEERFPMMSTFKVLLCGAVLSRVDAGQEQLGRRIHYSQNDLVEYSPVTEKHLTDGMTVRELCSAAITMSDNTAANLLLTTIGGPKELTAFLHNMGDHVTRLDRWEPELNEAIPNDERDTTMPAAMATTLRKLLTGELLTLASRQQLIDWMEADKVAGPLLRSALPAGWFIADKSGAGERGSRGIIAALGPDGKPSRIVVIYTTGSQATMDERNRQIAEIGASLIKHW
Protocol: as §1

[6] = pFTAA fluorescence of peptide aggregates; type: physicochemical; settings: 50 μM peptide, PolyP condition
Protocol: as §1

With Ac-RLTAFLHNRRPRLTAFLRQRR-NH2 [TEM3.2] the “solubility by Dynamic Light Scattering (in words)” value ([1]; 50 μM peptide in buffer alone) was “soluble in vitro”, the “aggregation by Dynamic Light Scattering (in words)” value ([1]; 50 μM peptide in the presence of LPS or polyphosphate (PolyP)) was “aggregates readily when triggered by appropriate interactions” and the “SHV enzyme in inclusion body fraction, western blot (in words)” value [2] was “accumulates in IBs”. For the same substance, the “hematologic analysis (in words)” value [3] was “no major discrepancies to vehicle-treated controls”, the “synergy with penicillin G (in words)” value [4] was “showed synergy in both strains” and the “induction of aggregation of recombinantly purified TEM beta-lactamase (in words)” value [5] was “potent inducer of the aggregation of the TEM beta-lactamase”. For the same substance, the “pFTAA staining of fibrils (in words)” value [6] was “stain positive for pentameric formyl thiophene acetic acid (pFTAA)”.
